Where a name gives a salt, the structure may show the parent alone. Read-outs that look alike come from different tables or passages of the source.
Tests used:
[1] = Activity on oxygen consumption (male albino rats in metabolic cages, per os); format: in vivo; settings: po; for response vs control in vivo at 3 µM, 3 µmol/kg: dosage 3 μM/kg
Description: (1) -Activity on oxygen consumption
Male albino rats weighing 160-180 g were placed in metabolic cages after fasting for 24 hours. The cages were ventilated with a constant 6 liter room air/minute which was equilibrated at a dew point of 11° C. Samples of the spent air were collected during periods of in each case 14 minutes after again equilibrating and the oxygen content and CO2 content were analyzed. After an adaptation time of 4 hours the animals, divided into groups of 6, received either placebo (5% gum arabic) or the test substance (suspended in 5% gum arabic) per os. Thereafter, the determinations were carried out for a period of 12 hours. In Table I the average oxygen consumption after medication during the first 3 hours and the entire test duration (12 hours) is given as percentage of the oxygen consumption during the adaptation period. Corresponding corrections for changes in the placebo group have been taken into consideration.

[2] = Activity on heart rate (male albino rats, electrocardiogram, per os); format: in vivo; settings: rat; for Heart rate (% of controls), 1 hour: 1 hour after treatment; for Heart rate (% of controls), 3 hours: 3 hours after treatment
Description: (2) Activity on heart rate
Male albino rats weighing 250-320 g received 6 hours after withdrawl of food either placebo (5% gum arabic) or the test substance (suspended in 5% gum arabic) per os. The animals were subsequently immobilized in perforated plastic tubes. The electrocardiogram was derived by means of bipolar subcutaneous needle electrodes. The R-peak was used to trigger a beat counter. The heart rate measured 1 and 3 hours after treatment was given in Table II as a percentage of the control value (placebo).

[3] = 3 h, rat, per os, 1st-3rd hour, corrected for changes in placebo group, read-out: O2 consumption, % of the value of the pre-period, 1st-3rd hour
[4] = 12 h, rat, per os, 1st-12th hour, corrected for changes in placebo group, read-out: O2 consumption, % of the value of the pre-period, 1st-12th hour
[5] = 3 h, rat, per os, dosage 10 μM/kg, 1st-3rd hour, corrected for changes in placebo group, read-out: O2 consumption, % of the value of the pre-period, 1st-3rd hour
[6] = 12 h, rat, per os, dosage 10 μM/kg, 1st-12th hour, corrected for changes in placebo group, read-out: O2 consumption, % of the value of the pre-period, 1st-12th hour

CCOCCOc1ccc(CCN(CC(CO)c2ccccc2)CC(CO)c2ccccc2)cc1 (racemic) [Example 2c]
response vs control in vivo at 3 µM, 3 µmol/kg [1, 3]: 132%
response vs control in vivo at 3 µM, 3 µmol/kg [1, 4]: 108%
Heart rate (% of controls), 1 hour ([2]; dosage 10 mg/kg): 103 % of controls
Heart rate (% of controls), 3 hours ([2]; dosage 10 mg/kg): 102 % of controls
Heart rate (% of controls), 1 hour ([2]; dosage 30 mg/kg): 111 % of controls
Heart rate (% of controls), 3 hours ([2]; dosage 30 mg/kg): 104 % of controls

CCOCCOc1ccc(CCNCC(CO)c2ccccc2)cc1.O=C(O)C(=O)O (single isomer, unassigned) [Example 3a, (R or S)-β-[[[p-(2-ethoxyethoxy)phenethyl]amino]methyl]-phenethyl alcohol oxalate]
response vs control in vivo at 3 µM, 3 µmol/kg [1, 3]: 152%
response vs control in vivo at 3 µM, 3 µmol/kg [1, 4]: 112%
Heart rate (% of controls), 1 hour ([2]; dosage 10 mg/kg): 108 % of controls
Heart rate (% of controls), 1 hour ([2]; dosage 30 mg/kg): 115 % of controls

CCOCCOc1ccc(C[C@@H](C)NCC(CO)c2ccccc2)cc1.O=C(O)C(=O)O (stereo partly drawn) [Example 2a, β-[[[(R)-p-(2-ethoxyethoxy)-α-methylphenethyl]amino]-methyl]-phenethyl alcohol oxalate]
response vs control in vivo at 10 µM, 10 µmol/kg ([1]; Rattus norvegicus, 3 h, read-out: O2 consumption, % of the value of the pre-period, 1st-3rd hour): 149%
response vs control in vivo at 10 µM, 10 µmol/kg ([1]; Rattus norvegicus, 12 h, read-out: O2 consumption, % of the value of the pre-period, 1st-12th hour): 113%
Heart rate (% of controls), 1 hour ([2]; dosage 30 mg/kg): 105 % of controls
Heart rate (% of controls), 3 hours ([2]; dosage 30 mg/kg): 100 % of controls
Heart rate (% of controls), 1 hour ([2]; dosage 100 mg/kg): 121 % of controls
Heart rate (% of controls), 3 hours ([2]; dosage 100 mg/kg): 112 % of controls

CCOCCOc1ccc(CCNCC(CO)c2cccc(Cl)c2)cc1.O=C(O)C(=O)O (stereo not drawn) [Example 2b, m-chloro-β-[[[p-(2-ethoxyethoxy)phenethyl]amino]methyl]phenethyl alcohol oxalate]
response vs control in vivo at 3 µM, 3 µmol/kg [1, 3]: 124%
response vs control in vivo at 3 µM, 3 µmol/kg [1, 4]: 107%
Heart rate (% of controls), 1 hour ([2]; dosage 30 mg/kg): 106 % of controls
Heart rate (% of controls), 3 hours ([2]; dosage 30 mg/kg): 99 % of controls
Heart rate (% of controls), 1 hour ([2]; dosage 100 mg/kg): 114 % of controls
Heart rate (% of controls), 3 hours ([2]; dosage 100 mg/kg): 105 % of controls

CCOCCOc1ccc(CCN(CC(CO)c2cccc(Cl)c2)C[C@H](O)c2ccccc2)cc1 (stereo partly shown) [Example 2d, oxalate]
response vs control in vivo at 3 µM, 3 µmol/kg [1, 3]: 152%
response vs control in vivo at 3 µM, 3 µmol/kg [1, 4]: 127%
Heart rate (% of controls), 1 hour ([2]; dosage 10 mg/kg): 103 % of controls
Heart rate (% of controls), 3 hours ([2]; dosage 10 mg/kg): 100 % of controls
Heart rate (% of controls), 1 hour ([2]; dosage 30 mg/kg): 111 % of controls
Heart rate (% of controls), 3 hours ([2]; dosage 30 mg/kg): 104 % of controls

OCC(CNCCc1ccc(OCCOCCc2ccccc2)cc1)c1ccccc1 (stereo not drawn) [Example 2j, β-[[[p-(2-phenethoxy)ethoxy]phenethyl]amino]methyl]phenethyl alcohol oxalate]
response vs control in vivo at 10 µM, 10 µmol/kg [1, 5]: 137%
response vs control in vivo at 10 µM, 10 µmol/kg [1, 6]: 113%
Heart rate (% of controls), 1 hour ([2]; dosage 100 mg/kg): 110 % of controls

CCOCCOc1ccc(CCNCC(CO)c2cccs2)cc1.O=C(O)C(=O)O (stereo not drawn) [Example 2o, β-[[[p-(2-ethoxyethoxy)phenethyl]amino]methyl]-2-thiophene-ethanol oxalate]
response vs control in vivo at 10 µM, 10 µmol/kg [1, 5]: 147%
response vs control in vivo at 10 µM, 10 µmol/kg [1, 6]: 115%
Heart rate (% of controls), 1 hour ([2]; dosage 30 mg/kg): 108 % of controls
Heart rate (% of controls), 1 hour ([2]; dosage 100 mg/kg): 111 % of controls

CCOC(=O)COc1ccc(CCNCC(CO)c2ccccc2)cc1 (stereo not drawn) [Example 4, ethyl [p-[2-[[β-(hydroxymethyl)phenethyl]-amino]ethyl]phenoxy]acetate hydrochloride]
response vs control in vivo at 3 µM, 3 µmol/kg [1, 3]: 145%
response vs control in vivo at 3 µM, 3 µmol/kg [1, 4]: 112%
